Laboratory results published in article PMC12892976, “Alkylation-based optimization of antifungal FPPS inhibitors yields a potent, broad-spectrum lipophilic zoledronate derivative” (mBio, 2025).
Read-outs that look alike come from different tables or passages of the source.

Columns and labels:
Aspergillus fumigatus [1] = assay: MIC/MFC broth microdilution (CLSI); conditions: ATCC204305
Protocol: (§1) Antifungal susceptibility was determined by broth microdilution according to the CLSI guidelines described in M27-Ed4 ([16]). […] MFC was determined by back-plating drug-treated cultures from MIC broths onto SDA plates. The MFC was defined as the lowest concentration from which no colonies could be cultured.

Aspergillus fumigatus [2] = assay: checkerboard drug interaction (FICI, MICc);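 as to all read-outs here: simplified diagonal checkerboard screen pairing antifungals with FPPS inhibitors against Aspergillus fumigatus, with FICI calculated under the Loewe additivity model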; assay type: cell-based; conditions: A. fumigatus; for INH FD (MIC-MICc fold decrease): fold decrease of inhibitor MIC
Protocol: (§2) Drug interactions between antifungals and FPPS inhibitors were investigated using a simplified checkerboard diagonal screening method ([45]). […] FICIs were determined according to the Loewe additivity model ([17]).

eight fungal species [3] = assay: MIC/MFC summary across the eight fungal species of Table 1; assay type: cell-based
Protocol: The antifungal activity of these compounds was evaluated according to CLSI guidelines ([16]).

Candida glabrata [4] = assay: checkerboard drug interaction (FICI, MICc);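 as to all read-outs here: simplified diagonal checkerboard screen pairing antifungals with FPPS inhibitors, FICI calculated under the Loewe additivity model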; assay type: cell-based; conditions: C. glabrata; for INH FD (MIC-MICc fold decrease): fold decrease of inhibitor MIC
Protocol: as §2

Aspergillus flavus [5] = assay: MIC/MFC broth microdilution (CLSI); conditions: ATCC204304
Protocol: as §1

Trichophyton rubrum [6] = assay: MIC/MFC broth microdilution (CLSI); conditions: Trichophyton rubrum
Protocol: as §1

Saccharomyces cerevisiae [7] = assay: MIC/MFC broth microdilution (CLSI); assay type: cell-based; conditions: Saccharomyces cerevisiae S288c
Protocol: as §1

HEK-293T cells = assay: MTT reduction cytotoxicity assay; assay type: cell-based; conditions: Homo sapiens, HEK-293T, 72 h, MTT, 72 h
[8] = tested on: Cryptococcus deuterogattii; assay: checkerboard drug interaction (FICI, MICc);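 as to all read-outs here: simplified diagonal checkerboard screen pairing antifungal drugs with FPPS inhibitors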; assay type: cell-based; conditions: C. deuterogattii; for INH FD (MIC-MICc fold decrease): fold decrease of inhibitor MIC
Protocol: as §2

Cryptococcus neoformans [9] = assay: checkerboard drug interaction (FICI, MICc);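 as to all read-outs here: antifungal plus FPPS inhibitor pairs tested against Cryptococcus neoformans by simplified diagonal checkerboard screening, FICI computed under the Loewe additivity model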; assay type: cell-based; conditions: C. neoformans; for INH FD (MIC-MICc fold decrease): fold decrease of inhibitor MIC
Protocol: as §2

Candida albicans [10] = assay: checkerboard drug interaction (FICI, MICc);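 as to all read-outs here: antifungal plus FPPS inhibitor combinations on Candida albicans tested by a simplified diagonal checkerboard screen, with FICI calculated under the Loewe additivity model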; assay type: cell-based; conditions: C. albicans; for INH FD (MIC-MICc fold decrease): fold decrease of inhibitor MIC
Protocol: as §2

Aspergillus flavus [11] = assay: checkerboard drug interaction (FICI, MICc);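 also: simplified diagonal checkerboard screen pairing azole antifungals with FPPS inhibitors, FICI calculated under the Loewe additivity model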; assay type: cell-based; parameters: INH MICc (KET:INH) / INH MICc (FLC:INH): unit not given beside the values; conditions: A. flavus
Candida glabrata [12] = assay: MIC/MFC broth microdilution (CLSI); conditions: Nakaseomyces glabratus, CBS138;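 also: broth microdilution following CLSI M27-Ed4, MFC taken as the lowest drug level yielding no growth once MIC wells were subcultured on SDA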
Protocol: as §1

Saccharomyces cerevisiae [13] = assay: checkerboard drug interaction (FICI, MICc);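 as to all read-outs here: simplified diagonal checkerboard screen pairing antifungals with FPPS inhibitors, FICI calculated under the Loewe additivity model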; assay type: cell-based; parameters: INH MICc / INH MICc (ITR:INH) / INH MICc (KET:INH) / INH MICc (FLC:INH): unit not given beside the values; conditions: S. cerevisiae; for INH FD (MIC-MICc fold decrease): fold decrease of inhibitor MIC
Candida albicans [14] = assay: MIC/MFC broth microdilution (CLSI); assay type: cell-based; conditions: Candida albicans SC5314
Protocol: as §1

[15] = tested on: Cryptococcus deuterogattii; assay: MIC/MFC broth microdilution (CLSI); conditions: Cryptococcus deuterogattii;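 also: broth microdilution per CLSI M27-Ed4. MFC is the lowest concentration yielding no colonies when MIC broths are subcultured onto SDA plates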
Protocol: as §1

eight fungal species [16] = assay: checkerboard interaction with azoles, summary across the eight species; assay type: cell-based; conditions: geometric mean MIC in combination with azoles
From the text: Synergy between lipophilic FPPS inhibitors and azole antifungals was investigated by determining the fractional inhibitory concentration index (FICI) (Fig. 2; Table S1 Fig. S1) ([17]). […]. Derivatives PLA9 and 11, and PDA9, 11, and 12 antagonized azoles in C. albicans, C. neoformans, and C. deuterogattii, yet were largely synergistic in C. glabrata and S. cerevisiae. […].

Trichophyton rubrum [17] = assay: checkerboard drug interaction (FICI, MICc);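 also: simplified diagonal checkerboard screen pairing azole antifungals with FPPS inhibitors, FICI calculated under the Loewe additivity model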; assay type: cell-based; conditions: T. rubrum
Protocol: as §2

Cryptococcus neoformans [18] = assay: MIC/MFC broth microdilution (CLSI); conditions: Cryptococcus neoformans;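 also: susceptibility testing followed the CLSI M27-Ed4 broth microdilution document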
Protocol: as §1

[19] = FLC:INH combination, MIC of FLC in combination with the inhibitor
[20] = FLC:INH combination, MIC of the inhibitor in combination with FLC
[21] = FLC:INH combination, fold decrease of FLC MIC
[22] = ITR:INH combination, MIC of ITR in combination with the inhibitor
[23] = ITR:INH combination, MIC of the inhibitor in combination with ITR
[24] = ITR:INH combination, fold decrease of ITR MIC
[25] = KET:INH combination, MIC of KET in combination with the inhibitor
[26] = KET:INH combination, MIC of the inhibitor in combination with KET
[27] = KET:INH combination, fold decrease of KET MIC
[28] = Fractional Inhibitory Concentration Index, fluconazole + inhibitor
[29] = Fractional Inhibitory Concentration Index, itraconazole + inhibitor
[30] = Fractional Inhibitory Concentration Index, ketoconazole + inhibitor
[31] = MIC of the inhibitor in combination with fluconazole
[32] = MIC of the inhibitor in combination with itraconazole
[33] = MIC of the inhibitor in combination with ketoconazole
[34] = MIC-MICc fold decrease of fluconazole, negative = increase
[35] = MIC-MICc fold decrease of itraconazole, negative = increase
[36] = MIC-MICc fold decrease of ketoconazole, negative = increase
[37] = MIC-MICc fold decrease of the inhibitor, with fluconazole
[38] = MIC-MICc fold decrease of the inhibitor, with itraconazole
[39] = MIC-MICc fold decrease of the inhibitor, with ketoconazole

CCCCCCCCCCN1CCC[C@H]1C(=O)N[C@@H](CC(=O)OC)C(=O)OC [dmPLA10]
0.63: FICI (Aspergillus fumigatus [2]; ITR:INH combination)
< -4: INH FD (FLC:INH) (Trichophyton rubrum [17]; [37])
128 µg/mL: MFC (Aspergillus fumigatus [1]) | MFC [15]
2.25: FICI (Aspergillus fumigatus [2]; KET:INH combination)
4: KET FD (MIC-MICc fold decrease) (Aspergillus fumigatus [2]; [27]) | INH MICc (Candida glabrata [4]; [23]) | INH FD (MIC-MICc fold decrease) (Candida glabrata [4]; ITR:INH combination) | INH FD (MIC-MICc fold decrease) ([8]; FLC:INH combination) | ITR FD (MIC-MICc fold decrease) [8, 24] | INH FD (MIC-MICc fold decrease) ([8]; ITR:INH combination) | INH FD (MIC-MICc fold decrease) ([8]; KET:INH combination) | FLC FD (MIC-MICc fold decrease) (Cryptococcus neoformans [9]; [21]) | ITR FD (MIC-MICc fold decrease) (Cryptococcus neoformans [9]; [24]) | KET FD (MIC-MICc fold decrease) (Cryptococcus neoformans [9]; [27]) | INH MICc (Candida albicans [10]; [23]) | INH FD (MIC-MICc fold decrease) (Candida albicans [10]; ITR:INH combination) | INH MICc (Candida albicans [10]; [26]) | INH FD (MIC-MICc fold decrease) (Candida albicans [10]; KET:INH combination)
64 µg/mL: MFC (eight fungal species [3]; across eight species, read-out: Geometric mean MFC) | MFC (Aspergillus flavus [5]) | MIC (Aspergillus flavus [5]) | MFC (Cryptococcus neoformans [18])
1: INH FD (MIC-MICc fold decrease) (Aspergillus fumigatus [2]; FLC:INH combination) | KET MICc (Aspergillus fumigatus [2]; [25]) | FLC FD (MIC-MICc fold decrease) (Candida glabrata [4]; [21]) | INH FD (MIC-MICc fold decrease) (Candida glabrata [4]; FLC:INH combination) | KET FD (MIC-MICc fold decrease) (Candida glabrata [4]; [27]) | FLC FD (MIC-MICc fold decrease) (Candida albicans [10]; [21]) | FLC FD (FLC:INH) (Aspergillus flavus [11]; [34]) | ITR FD (ITR:INH) (Aspergillus flavus [11]; [35]) | KET FD (KET:INH) (Aspergillus flavus [11]; [36]) | INH FD (FLC:INH) (Aspergillus flavus [11]; [37]) | INH MICc (Saccharomyces cerevisiae [13]; [23]) | ITR FD (MIC-MICc fold decrease) (Saccharomyces cerevisiae [13]; [24]) | INH MICc (Saccharomyces cerevisiae [13]; [26]) | KET FD (MIC-MICc fold decrease) (Saccharomyces cerevisiae [13]; [27]) | INH FD (ITR:INH) (Trichophyton rubrum [17]; [38]) | INH FD (KET:INH) (Trichophyton rubrum [17]; [39])
20.7 µg/mL: MIC (eight fungal species [3]; geometric mean across eight species, read-out: GM fungal MIC) | MIC (eight fungal species [3]; read-out: Geometric mean MIC)
64: INH MICc (FLC:INH) (Aspergillus flavus [11]; [31]) | INH MICc (FLC:INH) (Trichophyton rubrum [17]; [31])
1.57 µg/mL: IC50 (HEK-293T cells; HEK-293T cells, read-out: IC50) | IC50 (HEK-293T cells; read-out: HEK IC50)
0.5: FICI ([8]; ITR:INH combination)
1.06: FICI (Aspergillus fumigatus [2]; FLC:INH combination) | FICI (KET:INH) (Trichophyton rubrum [17]; [30])
0.28: FICI ([8]; KET:INH combination)
> 128 µg/mL: MFC (Trichophyton rubrum [6])
16 µg/mL: MFC (Saccharomyces cerevisiae [7]) | MIC [15] | MIC (Cryptococcus neoformans [18])
0.38: FICI ([8]; FLC:INH combination)
0.25: ITR MICc (Saccharomyces cerevisiae [13]; [22])
≥4: FICI (Candida glabrata [4]; FLC:INH combination) | FICI (Saccharomyces cerevisiae [13]; FLC:INH combination) | FICI (FLC:INH) (Trichophyton rubrum [17]; [28])
32: INH MICc (Aspergillus fumigatus [2]; [26]) | KET FD (MIC-MICc fold decrease) [8, 27] | INH MICc (KET:INH) (Aspergillus flavus [11]; [33]) | INH FD (ITR:INH) (Aspergillus flavus [11]; [38]) | ITR FD (ITR:INH) (Trichophyton rubrum [17]; [35])
8 µg/mL: MIC (Trichophyton rubrum [6]) | MIC (Saccharomyces cerevisiae [7])
0.75: FICI (Cryptococcus neoformans [9]; FLC:INH combination) | FICI (Cryptococcus neoformans [9]; ITR:INH combination) | FICI (Cryptococcus neoformans [9]; KET:INH combination) | FICI (Candida albicans [10]; ITR:INH combination) | FICI (Candida albicans [10]; KET:INH combination)
-2: INH FD (MIC-MICc fold decrease) (Aspergillus fumigatus [2]; KET:INH combination) | FLC FD (MIC-MICc fold decrease) (Saccharomyces cerevisiae [13]; [21]) | INH FD (MIC-MICc fold decrease) (Saccharomyces cerevisiae [13]; FLC:INH combination)
64.0 µg/mL: Geometric mean MFC (eight fungal species [3]; across eight species)
8: FLC MICc (Aspergillus fumigatus [2]; [19]) | INH FD (MIC-MICc fold decrease) (Aspergillus fumigatus [2]; ITR:INH combination) | INH MICc (Candida glabrata [4]; [26]) | INH MICc [8, 20] | FLC FD (MIC-MICc fold decrease) [8, 21] | INH MICc [8, 23] | INH MICc [8, 26] | INH MICc (Cryptococcus neoformans [9]; [20]) | INH MICc (Cryptococcus neoformans [9]; [23]) | INH MICc (Cryptococcus neoformans [9]; [26]) | INH MICc (Candida albicans [10]; [20]) | FLC MICc (Saccharomyces cerevisiae [13]; [19]) | INH FD (MIC-MICc fold decrease) (Saccharomyces cerevisiae [13]; ITR:INH combination) | INH FD (MIC-MICc fold decrease) (Saccharomyces cerevisiae [13]; KET:INH combination) | GM fungal MICc (eight fungal species [16]) | INH MICc (ITR:INH) (Trichophyton rubrum [17]; [32]) | INH MICc (KET:INH) (Trichophyton rubrum [17]; [33])
2: INH MICc (Aspergillus fumigatus [2]; [23]) | ITR FD (MIC-MICc fold decrease) (Aspergillus fumigatus [2]; [24]) | ITR FD (MIC-MICc fold decrease) (Candida glabrata [4]; [24]) | INH FD (MIC-MICc fold decrease) (Candida glabrata [4]; KET:INH combination) | INH FD (MIC-MICc fold decrease) (Cryptococcus neoformans [9]; FLC:INH combination) | INH FD (MIC-MICc fold decrease) (Cryptococcus neoformans [9]; ITR:INH combination) | INH FD (MIC-MICc fold decrease) (Cryptococcus neoformans [9]; KET:INH combination) | INH FD (MIC-MICc fold decrease) (Candida albicans [10]; FLC:INH combination) | ITR FD (MIC-MICc fold decrease) (Candida albicans [10]; [24]) | KET FD (MIC-MICc fold decrease) (Candida albicans [10]; [27]) | FICI (FLC:INH) (Aspergillus flavus [11]; [28]) | INH MICc (ITR:INH) (Aspergillus flavus [11]; [32]) | INH FD (KET:INH) (Aspergillus flavus [11]; [39]) | KET MICc (Saccharomyces cerevisiae [13]; [25]) | FLC FD (FLC:INH) (Trichophyton rubrum [17]; [34])
0.063: ITR MICc (Aspergillus fumigatus [2]; [22])
1.5: FICI (Candida glabrata [4]; ITR:INH combination) | FICI (Candida albicans [10]; FLC:INH combination) | FICI (KET:INH) (Aspergillus flavus [11]; [30])
32 µg/mL: MIC (Aspergillus fumigatus [1]) | MFC (Candida glabrata [12]) | MIC (Candida glabrata [12]) | MFC (Candida albicans [14]) | MIC (Candida albicans [14])
1.13: FICI (Saccharomyces cerevisiae [13]; ITR:INH combination) | FICI (Saccharomyces cerevisiae [13]; KET:INH combination)
3: FICI (Candida glabrata [4]; KET:INH combination)
1.03: FICI (ITR:INH) (Aspergillus flavus [11]; [29]) | FICI (ITR:INH) (Trichophyton rubrum [17]; [29])
16: INH MICc (Aspergillus fumigatus [2]; [20]) | FLC FD (MIC-MICc fold decrease) (Aspergillus fumigatus [2]; [21]) | INH MICc (Candida glabrata [4]; [20]) | INH MICc (Saccharomyces cerevisiae [13]; [20]) | KET FD (KET:INH) (Trichophyton rubrum [17]; [36])
